The conditions of data set [1]: known to have; no test by the applicant; cited from earlier work.
In data set [2] the test system is Aspergillus sojae NBRC4239 strain. Nature of the data set: Toxicity of selenium compounds: cell proliferation with alamarBlue Cell Viability Reagent. The settings on record: conidia of Aspergillus sojae NBRC4239; 0-2 mM final concentration; 30° C. for 30 hours. Format: cell-based. As for the experimental part: The cytotoxicity of sodium selenite was tested as follows. To quantify cell proliferation, alamarBlue Cell Viability Reagent (Thermo Fisher Scientific) was used.
The mixture composed of 2× DPY liquid medium (2 (w/v) % polypeptone, 4 (w/v) % dextrin, 1 (w/v) % yeast extract, 1 (w/v) % KH2PO4, 0.1 (w/v) % MgSO4·7H2O; pH not adjusted), 2× alamarBlue and 2×10^4 cells/ml the conidia of Aspergillus sojae NBRC4239 strain was dispensed in the volume of 100 μl into each well of a microplate. Similarly, 100 μl of an aqueous sodium selenite solution was added to each well so that the final concentration was 0 mM, 0.125 mM, 0.25 mM, 0.5 mM, 1 mM and 2 mM. The blank without the addition of the conidia and sodium selenite solution was used as a blank.
After incubating the microplate at 30° C. for 30 hours, absorbance at 570 nm was measured. A plot of the value calculated by subtracting absorbance at 600 nm of the blank from the measurement result according to the instruction manual of alamarBlue reagent is shown in FIG. 4.

With `C[N+](C)(C)[C@@H](Cc1cnc([Se-])[nH]1)C(=O)O` [selenoneine], the “antioxidant activity relative to its thio analog, ergothioneine” value in data set [1] is on record as 1,000 times.
Turning to `O=[Se](O)O` [sodium selenite], in data set [2], the “degree of mycelial growth observed visually” value was “No difference” and the “growth inhibition (cytotoxicity, absorbance at 570 nm, FIG. 4)” value is “no growth inhibition”.

The values are drawn from patent US12398411B2, “Method for producing selenoneine” (KIKKOMAN CORPORATION, priority 2018, dated 2025).
